Patent US10759822B2 (priority 2016, dated 2020)

Experiments:
[1] = mouse, in vivo
[2] = mouse, in vivo; for MRT0-t: Kunming, iv, 1 mg/kg

Structure (SMILES) | (AUC0-t)prodrug group/(AUC0-t)prototype drug group [1] | (AUC0-t)prodrug/(AUC0-t)prototype drug [2] | MRT0-t [2] [h]
CCSS/C(CCOC(=O)CCC(=O)OC1CCC(N(C)C(=O)c2ccc3nonc3c2)CC1)=C(/C)N(C)C=O (stereo not drawn) [Compound 1, Succinic acid anti-4-[(benzo[c][1,2,5]oxadiazole-5-carbonyl)-methyl-amino]-cyclohexyl ester 3-ethyldisulfanyl-4-(formyl-methyl-amino)-pent-3-enyl ester] | 0.48 | 1.55 | –
CCCSS/C(CCOC(=O)CCC(=O)OC1CCC(N(C)C(=O)c2ccc3nonc3c2)CC1)=C(/C)N(C)C=O (stereo not drawn) [Compound 2, Succinic acid anti-4-[(benzo[c][1,2,5]oxadiazole-5-carbonyl)-methyl-amino]-cyclohexyl ester 3-propyldisulfanyl-4-(formyl-methyl-amino)-pent-3-enyl ester] | 0.49 | 1.72 | –
C/C(=C(\CCOC(=O)CCC(=O)OC1CCC(N(C)C(=O)c2ccc3nonc3c2)CC1)SSC(C)C)N(C)C=O (stereo not drawn) [Compound 3, Succinic acid anti-4-[(benzo[c][1,2,5]oxadiazole-5-carbonyl)-methyl-amino]-cyclohexyl ester 3-isopropyldisulfanyl-4-(formyl-methyl-amino)-pent-3-enyl ester] | 0.62 | 1.77 | –
CCCCSS/C(CCOC(=O)CCC(=O)OC1CCC(N(C)C(=O)c2ccc3nonc3c2)CC1)=C(/C)N(C)C=O (stereo not drawn) [Compound 4, Succinic acid anti-4-[(benzo[c][1,2,5]oxadiazole-5-carbonyl)-methyl-amino]-cyclohexyl ester 3-butyldisulfanyl-4-(formyl-methyl-amino)-pent-3-enyl ester] | 0.68 | 1.56 | –
C/C(=C(\CCOC(=O)CCC(=O)OC1CCC(N(C)C(=O)c2ccc3nonc3c2)CC1)SSCC(C)C)N(C)C=O (stereo not drawn) [Compound 5, Succinic acid anti-4-[(benzo[c][1,2,5]oxadiazole-5-carbonyl)-methyl-amino]-cyclohexyl ester 3-isobutyldisulfanyl-4-(formyl-methyl-amino)-pent-3-enyl ester] | 0.67 | 1.70 | –
CCCCCSS/C(CCOC(=O)CCC(=O)OC1CCC(N(C)C(=O)c2ccc3nonc3c2)CC1)=C(/C)N(C)C=O (stereo not drawn) [Compound 6, Succinic acid anti-4-[(benzo[c][1,2,5]oxadiazole-5-carbonyl)-methyl-amino]-cyclohexyl ester 3-pentyldisulfanyl-4-(formyl-methyl-amino)-pent-3-enyl ester] | 0.62 | 1.88 | –
C/C(=C(\CCOC(=O)CCC(=O)OC1CCC(N(C)C(=O)c2ccc3nonc3c2)CC1)SSCCC(C)C)N(C)C=O (stereo not drawn) [Compound 7, Succinic acid anti-4-[(benzo[c][1,2,5]oxadiazole-5-carbonyl)-methyl-amino]-cyclohexyl ester 3-isopentyldisulfanyl-4-(formyl-methyl-amino)-pent-3-enyl ester] | 0.53 | 1.49 | –
C/C(=C(\CCOC(=O)CCC(=O)OC1CCC(N(C)C(=O)c2ccc3nonc3c2)CC1)SSCc1ccccc1)N(C)C=O (stereo not drawn) [Compound 8, Succinic acid anti-4-[(benzo[c][1,2,5]oxadiazole-5-carbonyl)-methyl-amino]-cyclohexyl ester 3-benzyldisulfanyl-4-(formyl-methyl-amino)-pent-3-enyl ester] | 0.62 | 1.73 | –
CCSS/C(CCOC(=O)CCCC(=O)OC1CCC(N(C)C(=O)c2ccc3nonc3c2)CC1)=C(/C)N(C)C=O (stereo not drawn) [Compound 9, Pentanedioic acid anti-4-[(benzo[c][1,2,5]oxadiazole-5-carbonyl)-methyl-amino]-cyclohexyl ester 3-ethyldisulfanyl-4-(formyl-methyl-amino)-pent-3-enyl ester] | 0.51 | 1.74 | –
CCCSS/C(CCOC(=O)CCCC(=O)OC1CCC(N(C)C(=O)c2ccc3nonc3c2)CC1)=C(/C)N(C)C=O (stereo not drawn) [Compound 10, Pentanedioic acid anti-4-[(benzo[c][1,2,5]oxadiazole-5-carbonyl)-methyl-amino]-cyclohexyl ester 3-propyldisulfanyl-4-(formyl-methyl-amino)-pent-3-enyl ester] | 0.47 | 1.86 | –
C/C(=C(\CCOC(=O)CCCC(=O)OC1CCC(N(C)C(=O)c2ccc3nonc3c2)CC1)SSC(C)C)N(C)C=O (stereo not drawn) [Compound 11, Pentanedioic acid anti-4-[(benzo[c][1,2,5]oxadiazole-5-carbonyl)-methyl-amino]-cyclohexyl ester 3-isopropyldisulfanyl-4-(formyl-methyl-amino)-pent-3-enyl ester] | 0.72 | 1.92 | –
CCCCSS/C(CCOC(=O)CCCC(=O)OC1CCC(N(C)C(=O)c2ccc3nonc3c2)CC1)=C(/C)N(C)C=O (stereo not drawn) [Compound 12, Pentanedioic acid anti-4-[(benzo[c][1,2,5]oxadiazole-5-carbonyl)-methyl-amino]-cyclohexyl ester 3-butyldisulfanyl-4-(formyl-methyl-amino)-pent-3-enyl ester] | 0.46 | 1.92 | –
C/C(=C(\CCOC(=O)CCCC(=O)OC1CCC(N(C)C(=O)c2ccc3nonc3c2)CC1)SSCC(C)C)N(C)C=O (stereo not drawn) [Compound 13, Pentanedioic acid anti-4-[(benzo[c][1,2,5]oxadiazole-5-carbonyl)-methyl-amino]-cyclohexyl ester 3-isobutyldisulfanyl-4-(formyl-methyl-amino)-pent-3-enyl ester] | 0.60 | 1.96 | –
CCCCCCSS/C(CCOC(=O)CCCC(=O)OC1CCC(N(C)C(=O)c2ccc3nonc3c2)CC1)=C(/C)N(C=O)CC(=O)OCC1OC(O)C(O)C(O)C1O [Compound 21, Pentanedioic acid anti-4-[(benzo[c][1,2,5]oxadiazole-5-carbonyl)-methyl-amino]-cyclohexyl ester 3-hexyldisulfanyl-4-[formyl-(D-glucos-6-yl-carbonylmethyl)-amino]-pent-3-enyl ester] | – | 1.68 | 1.91
CCSS/C(CCOC(=O)CCCC(=O)OC1CCC(N(C)C(=O)c2ccc3nonc3c2)CC1)=C(/C)N(C=O)CC(=O)OCC(O)C1OC(=O)C(O)=C1O (stereo not drawn) [Compound 22, Pentanedioic acid anti-4-[(benzo[c][1,2,5]oxadiazole-5-carbonyl)-methyl-amino]-cyclohexyl ester 3-ethyldisulfanyl-4-{[2-(3,4-dihydroxy-5-oxo-2,5-dihydro-furan-2-yl)-2-hydroxy-ethoxycarbonylmethyl]-formyl-amino}-pent-3-enyl ester] | – | 1.82 | 2.00
